Results: US8802597B2, “Herbicidal pyrimidines” (E I du Pont de Nemours and Company, priority 2003, dated 2014)
Where two headings read alike, the source gives them in different places.

Key:
Format in all cases: in vivo
[1] = test system: chickweed (Stellaria media); assay: Test C postemergence
How it was run: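 Percent control is a visual rating (0 none, 100 complete) taken against untreated plants after 12 to 14 days of greenhouse growth. Applications were made preemergence to seeded pots and postemergence to plants at the 1- to 4-leaf stage, in a non-phytotoxic surfactant-containing solvent.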

[2] = test system: corn (Zea mays); assay: Test C pre/postemergence; settings: for Corn plant response rating (crop injury, 0 = no effect, 100 = complete kill) at 31 g/ha / Corn plant response rating (crop injury, 0 = no effect, 100 = complete kill) at 62 g/ha / Corn plant response rating (crop injury, 0 = no effect, 100 = complete kill) at 125 g/ha / Corn plant response rating (crop injury, 0 = no effect, 100 = complete kill) at 250 g/ha: Zea mays; for Corn plant response rating (crop injury, 0 = no effect, 100 = complete kill) at 250 g/ha: 250 g ai/ha
Description: (§1) Seeds or nutlets of plant species selected from bermudagrass (Cynodon dactylon), Surinam grass (Brachiaria decumbens), cocklebur (Xanthium strumarium), corn (Zea mays), crabgrass (Digitaria sanguinalis), woolly cupgrass (Eriochloa villosa), giant foxtail (Setaria faberii), goosegrass (Eleusine indica), johnsongrass (Sorghum halepense), kochia (Kochia scoparia), lambsquarters (Chenopodium album), morningglory (Ipomoea coccinea), eastern black nightshade (Solanum ptycanthum), yellow nutsedge (Cyperus esculentus), pigweed (Amaranthus retroflexus), common ragweed (Ambrosia elatior), soybean (Glycine max), common (oilseed) sunflower (Helianthus annuus), and velvetleaf (Abutilon theophrasti) were planted and treated preemergence with test chemicals formulated in a non-phytotoxic solvent mixture which included a surfactant.
(§2) At the same time, plants selected from these crop and weed species and also winter barley (Hordeum vulgare), blackgrass (Alopecurus myosuroides), canarygrass (Phalaris minor), chickweed (Stellaria media), downy brome (Bromus tectorum), green foxtail (Setaria viridis), Italian ryegrass (Lolium multiflorum), wheat (Triticum aestivum), wild oat (Avena fatua) and windgrass (Apera spica-venti) were treated with postemergence applications of some of the test chemicals formulated in the same manner. Plants ranged in height from 2 to 18 cm (1- to 4-leaf stage) for postemergence treatments. Plant species in the flooded paddy test consisted of rice (Oryza sativa), umbrella sedge (Cyperus difformis), duck salad (Heteranthera limosa) and barnyardgrass (Echinochloa crus-galli) grown to the 2-leaf stage for testing. Treated plants and controls were maintained in a greenhouse for 12 to 14 days, after which time all species were compared to controls and visually evaluated. Plant response ratings, summarized in Table C, are based on a scale of 0 to 100 where 0 is no effect and 100 is complete control. A dash (-) response means no test result.

[3] = test system: common ragweed (Ambrosia elatior); assay: Test C pre/postemergence; settings: for pest or weed control at 31 g/ha / pest or weed control at 62 g/ha / pest or weed control at 125 g/ha / pest or weed control at 250 g/ha: Ambrosia artemisiifolia; for pest or weed control at 250 g/ha: 250 g ai/ha
Description: as §1, §2

[4] = test system: cocklebur (Xanthium strumarium); assay: Test C pre/postemergence; settings: for pest or weed control at 31 g/ha / pest or weed control at 62 g/ha / pest or weed control at 125 g/ha / pest or weed control at 250 g/ha: Xanthium strumarium; for pest or weed control at 250 g/ha: 250 g ai/ha
Description: as §1, §2

[5] = test system: lambsquarters (Chenopodium album); assay: Test C pre/postemergence; settings: for pest or weed control at 31 g/ha / pest or weed control at 62 g/ha / pest or weed control at 125 g/ha / pest or weed control at 250 g/ha: Chenopodium album; for pest or weed control at 250 g/ha: 250 g ai/ha
Description: as §1, §2

[6] = Postemergence, 62 g ai/ha, scale 0 to 100 (0 no effect, 100 complete control)
[7] = Postemergence, 125 g ai/ha, scale 0 to 100 (0 no effect, 100 complete control)
[8] = Preemergence, 16 g ai/ha, scale 0 to 100, 0 no effect, 100 complete control
[9] = Preemergence, 31 g ai/ha, scale 0 to 100, 0 no effect, 100 complete control
[10] = Preemergence, 62 g ai/ha, scale 0 to 100, 0 no effect, 100 complete control
[11] = Preemergence, 125 g ai/ha, scale 0 to 100

`COC(=O)c1nc(C2CC2)nc(N)c1Cl` [Compound 9, methyl 6-amino-5-chloro-2-cyclopropyl-4-pyrimidinecarboxylate] was tested, and the pest or weed control at 31 g/ha ([1]; Stellaria media, post-emergence, 31 g ai/ha, read-out: Plant response rating (scale of 0 to 100), Chickweed) was 15%, the pest or weed control at 62 g/ha ([1]; Stellaria media, post-emergence, 62 g ai/ha, scale 0 to 100 (0 no effect, 100 complete control), read-out: Chickweed plant response rating) was 85% and the pest or weed control at 125 g/ha ([1]; Stellaria media, post-emergence, 125 g ai/ha, scale 0 to 100, read-out: Plant response rating, Chickweed) was 100%. For the same compound, the pest or weed control at 250 g/ha ([1]; Stellaria media, post-emergence, 250 g ai/ha, scale 0 to 100, read-out: Plant response rating, Chickweed) was 100%, the Corn plant response rating (crop injury, 0 = no effect, 100 = complete kill) at 31 g/ha ([2]; post-emergence, Postemergence, 31 g ai/ha, read-out: Plant response rating (scale of 0 to 100), Corn) was 45% and the Corn plant response rating (crop injury, 0 = no effect, 100 = complete kill) at 62 g/ha ([2]; post-emergence, Postemergence, 62 g ai/ha, scale 0 to 100 (0 no effect, 100 complete control), read-out: Corn plant response rating) was 55%. It also gave a Corn plant response rating (crop injury, 0 = no effect, 100 = complete kill) at 125 g/ha ([2]; post-emergence, Postemergence, 125 g ai/ha, scale 0 to 100 (0 no effect, 100 complete control), read-out: Corn plant response rating) of 65%, a Corn plant response rating (crop injury, 0 = no effect, 100 = complete kill) at 250 g/ha ([2]; post-emergence, Postemergence, scale 0 to 100) of 95% and a Corn plant response rating (crop injury, 0 = no effect, 100 = complete kill) at 31 g/ha ([2]; pre-emergence, Preemergence, 31 g ai/ha, scale 0 to 100, 0 no effect, 100 complete control, read-out: Plant response rating, Corn) of 0%. It also gave a Corn plant response rating (crop injury, 0 = no effect, 100 = complete kill) at 62 g/ha ([2]; pre-emergence, Preemergence, 62 g ai/ha, scale 0 to 100, 0 no effect, 100 complete control, read-out: Plant response rating, Corn) of 5%, a Corn plant response rating (crop injury, 0 = no effect, 100 = complete kill) at 125 g/ha ([2]; pre-emergence, Preemergence, 125 g ai/ha, scale 0 to 100, read-out: Plant response rating, Corn) of 60% and a Corn plant response rating (crop injury, 0 = no effect, 100 = complete kill) at 250 g/ha ([2]; pre-emergence, Preemergence, scale 0 to 100) of 75%. The pest or weed control at 31 g/ha ([3]; post-emergence, Postemergence, 31 g ai/ha, read-out: Plant response rating (scale of 0 to 100), Ragweed) was 70%, the pest or weed control at 62 g/ha ([3]; post-emergence, Postemergence, 62 g ai/ha, scale 0 to 100 (0 no effect, 100 complete control), read-out: Ragweed plant response rating) was 80% and the pest or weed control at 125 g/ha ([3]; post-emergence, Postemergence, 125 g ai/ha, scale 0 to 100 (0 no effect, 100 complete control), read-out: Ragweed plant response rating) was 95%. It also gave a pest or weed control at 250 g/ha ([3]; post-emergence, Postemergence, scale 0 to 100, read-out: Plant response rating, Ragweed) of 100%, a pest or weed control at 31 g/ha ([3]; pre-emergence, Preemergence, 31 g ai/ha, scale 0 to 100, 0 no effect, 100 complete control, read-out: Plant response rating, Ragweed) of 100% and a pest or weed control at 62 g/ha ([3]; pre-emergence, Preemergence, 62 g ai/ha, scale 0 to 100, 0 no effect, 100 complete control, read-out: Plant response rating, Ragweed) of 100%. The pest or weed control at 125 g/ha ([3]; pre-emergence, Preemergence, 125 g ai/ha, scale 0 to 100, read-out: Plant response rating, Ragweed) was 100%, the pest or weed control at 250 g/ha ([3]; pre-emergence, Preemergence, scale 0 to 100, read-out: Plant response rating, Ragweed) was 100% and the pest or weed control at 31 g/ha ([4]; post-emergence, Postemergence, 31 g ai/ha, read-out: Plant response rating (scale of 0 to 100), Cocklebur) was 40%. For the same compound, the pest or weed control at 62 g/ha ([4]; post-emergence, Postemergence, 62 g ai/ha, scale 0 to 100 (0 no effect, 100 complete control), read-out: Cocklebur plant response rating) was 85%, the pest or weed control at 125 g/ha ([4]; post-emergence, Postemergence, 125 g ai/ha, scale 0 to 100 (0 no effect, 100 complete control), read-out: Cocklebur plant response rating) was 100% and the pest or weed control at 250 g/ha ([4]; post-emergence, Postemergence, scale 0 to 100, read-out: Plant response rating, Cocklebur) was 100%. It also gave a pest or weed control at 31 g/ha ([4]; pre-emergence, Preemergence, 31 g ai/ha, scale 0 to 100, 0 no effect, 100 complete control, read-out: Plant response rating, Cocklebur) of 75%, a pest or weed control at 62 g/ha ([4]; pre-emergence, Preemergence, 62 g ai/ha, scale 0 to 100, 0 no effect, 100 complete control, read-out: Plant response rating, Cocklebur) of 80% and a pest or weed control at 125 g/ha ([4]; pre-emergence, Preemergence, 125 g ai/ha, scale 0 to 100, read-out: Plant response rating, Cocklebur) of 100%. The pest or weed control at 250 g/ha ([4]; pre-emergence, Preemergence, scale 0 to 100, read-out: Plant response rating, Cocklebur) was 100%, the pest or weed control at 31 g/ha ([5]; post-emergence, Postemergence, 31 g ai/ha, read-out: Plant response rating (scale of 0 to 100), Lambsquarters) was 90% and the pest or weed control at 62 g/ha ([5]; post-emergence, Postemergence, 62 g ai/ha, scale 0 to 100 (0 no effect, 100 complete control), read-out: Lambsquarters plant response rating) was 95%. It also gave a pest or weed control at 125 g/ha ([5]; post-emergence, Postemergence, 125 g ai/ha, scale 0 to 100 (0 no effect, 100 complete control), read-out: Lambsquarters plant response rating) of 100%, a pest or weed control at 250 g/ha ([5]; post-emergence, Postemergence, scale 0 to 100, read-out: Plant response rating, Lambsquarters) of 100% and a pest or weed control at 31 g/ha ([5]; pre-emergence, Preemergence, 31 g ai/ha, scale 0 to 100, 0 no effect, 100 complete control, read-out: Plant response rating, Lambsquarters) of 95%. It also gave a pest or weed control at 62 g/ha ([5]; pre-emergence, Preemergence, 62 g ai/ha, scale 0 to 100, 0 no effect, 100 complete control, read-out: Plant response rating, Lambsquarters) of 100%, a pest or weed control at 125 g/ha ([5]; pre-emergence, Preemergence, 125 g ai/ha, scale 0 to 100, read-out: Plant response rating, Lambsquarters) of 100% and a pest or weed control at 250 g/ha ([5]; pre-emergence, Preemergence, scale 0 to 100, read-out: Plant response rating, Lambsquarters) of 100%.
For `COCc1nc(C2CC2)nc(N)c1Br` [Compound 11], the “Plant response rating (scale of 0 to 100), Chickweed” value ([1]; 16 g ai/ha) was 0, the “Plant response rating (scale of 0 to 100), Chickweed” value ([1]; 31 g ai/ha) was 0 and the “Chickweed plant response rating” value ([1]; 62 g ai/ha, scale 0 to 100 (0 no effect, 100 complete control)) was 0. For the same compound, the “Plant response rating, Chickweed” value ([1]; 125 g ai/ha, scale 0 to 100) was 0, the “Plant response rating (scale of 0 to 100), Corn” value ([2]; Postemergence, 16 g ai/ha) was 0 and the “Plant response rating (scale of 0 to 100), Corn” value ([2]; Postemergence, 31 g ai/ha) was 0. For the same compound, the “Corn plant response rating” value [2, 6] was 0, the “Corn plant response rating” value [2, 7] was 0 and the “Plant response rating, Corn” value [2, 8] was 0. The “Plant response rating, Corn” value [2, 9] was 0, the “Plant response rating, Corn” value [2, 10] was 0 and the “Plant response rating, Corn” value [2, 11] was 0. For the same compound, the “Plant response rating (scale of 0 to 100), Ragweed” value ([3]; Postemergence, 16 g ai/ha) was 15, the “Plant response rating (scale of 0 to 100), Ragweed” value ([3]; Postemergence, 31 g ai/ha) was 45 and the “Ragweed plant response rating” value [3, 6] was 65. For the same compound, the “Ragweed plant response rating” value [3, 7] was 75, the “Plant response rating, Ragweed” value [3, 8] was 0 and the “Plant response rating, Ragweed” value [3, 9] was 0. The “Plant response rating, Ragweed” value [3, 10] was 20, the “Plant response rating, Ragweed” value [3, 11] was 45 and the “Plant response rating (scale of 0 to 100), Cocklebur” value ([4]; Postemergence, 16 g ai/ha) was 0. For the same compound, the “Plant response rating (scale of 0 to 100), Cocklebur” value ([4]; Postemergence, 31 g ai/ha) was 0, the “Cocklebur plant response rating” value [4, 6] was 25 and the “Cocklebur plant response rating” value [4, 7] was 40. For the same compound, the “Plant response rating, Cocklebur” value [4, 8] was 0, the “Plant response rating, Cocklebur” value [4, 9] was 0 and the “Plant response rating, Cocklebur” value [4, 10] was 0. The “Plant response rating, Cocklebur” value [4, 11] was 0, the “Plant response rating (scale of 0 to 100), Lambsquarters” value ([5]; Postemergence, 16 g ai/ha) was 50 and the “Plant response rating (scale of 0 to 100), Lambsquarters” value ([5]; Postemergence, 31 g ai/ha) was 60. For the same compound, the “Lambsquarters plant response rating” value [5, 6] was 70, the “Lambsquarters plant response rating” value [5, 7] was 80 and the “Plant response rating, Lambsquarters” value [5, 8] was 0. For the same compound, the “Plant response rating, Lambsquarters” value [5, 9] was 0, the “Plant response rating, Lambsquarters” value [5, 10] was 40 and the “Plant response rating, Lambsquarters” value [5, 11] was 85.
